Measurements reported in PubChem BioAssay (NCI).
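Where inhibition never reached the appropriate level, the endpoint shown equals the highest concentration tested. Otherwise, values were interpolated linearly from a five-concentration, 48-hour dose response in 96-well plates. TGI marks complete inhibition of growth.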

Legend:
Experiment in all cases: NCI anticancer screen, dose series, 48 h
LOX IMVI melanoma = tested on: LOX IMVI melanoma
UACC-62 melanoma = tested on: UACC-62 melanoma
KM20L2 colon = tested on: KM20L2 colon
SK-MEL-28 melanoma = tested on: SK-MEL-28 melanoma
NCI-H522 lung = tested on: NCI-H522 lung
DMS 114 small cell lung = tested on: DMS 114 small cell lung
EKVX NSCLC = tested on: EKVX NSCLC
NCI-H226 lung = tested on: NCI-H226 lung
LXFL 529 NSCLC = tested on: LXFL 529 NSCLC
MALME-3M melanoma = tested on: MALME-3M melanoma
COLO 205 colon = tested on: COLO 205 colon
HL-60(TB) leukemia = tested on: HL-60(TB) leukemia
SNB-78 CNS = tested on: SNB-78 CNS
A549 NSCLC = tested on: A549 NSCLC
OVCAR-8 ovarian = tested on: OVCAR-8 ovarian
SF-539 CNS = tested on: SF-539 CNS
SW-620 colon = tested on: SW-620 colon
TK-10 renal = tested on: TK-10 renal
M14 melanoma = tested on: M14 melanoma
IGROV1 ovarian = tested on: IGROV1 ovarian
CCRF-CEM leukemia = tested on: CCRF-CEM leukemia
HT29 colon = tested on: HT29 colon
SNB-75 CNS = tested on: SNB-75 CNS
UACC-257 melanoma = tested on: UACC-257 melanoma
OVCAR-5 ovarian = tested on: OVCAR-5 ovarian
HCC-2998 colon = tested on: HCC-2998 colon
CAKI-1 renal = tested on: CAKI-1 renal
NCI-H23 lung = tested on: NCI-H23 lung
ACHN renal = tested on: ACHN renal
K-562 leukemia = tested on: K-562 leukemia
SN12C renal = tested on: SN12C renal
OVCAR-3 ovarian = tested on: OVCAR-3 ovarian
M19-MEL melanoma = tested on: M19-MEL melanoma
SF-295 CNS = tested on: SF-295 CNS
SK-MEL-2 melanoma = tested on: SK-MEL-2 melanoma
U251 CNS = tested on: U251 CNS
MOLT-4 leukemia = tested on: MOLT-4 leukemia
RPMI-8226 leukemia = tested on: RPMI-8226 leukemia
HCT-116 colon = tested on: HCT-116 colon
KM12 colon = tested on: KM12 colon
OVCAR-4 ovarian = tested on: OVCAR-4 ovarian
HOP-92 NSCLC = tested on: HOP-92 NSCLC
786-0 renal = tested on: 786-0 renal
SF-268 CNS = tested on: SF-268 CNS
SR leukemia = tested on: SR leukemia
SNB-19 CNS = tested on: SNB-19 CNS
A498 renal = tested on: A498 renal
NCI-H460 lung = tested on: NCI-H460 lung
SK-MEL-5 melanoma = tested on: SK-MEL-5 melanoma
HCT-15 colon = tested on: HCT-15 colon
UO-31 renal = tested on: UO-31 renal
SK-OV-3 ovarian = tested on: SK-OV-3 ovarian
DLD-1 colon = tested on: DLD-1 colon
HOP-62 NSCLC = tested on: HOP-62 NSCLC
DMS 273 small cell lung = tested on: DMS 273 small cell lung
XF 498 CNS = tested on: XF 498 CNS
HS 578T breast = tested on: HS 578T breast
MCF7 breast = tested on: MCF7 breast
DU-145 prostate = tested on: DU-145 prostate
RXF 393 renal = tested on: RXF 393 renal
MDA-MB-231 breast = tested on: MDA-MB-231 breast
MDA-N = tested on: MDA-N
T-47D breast = tested on: T-47D breast
NCI/ADR-RES ovarian = tested on: NCI/ADR-RES ovarian
BT-549 breast = tested on: BT-549 breast
MDA-MB-435 = tested on: MDA-MB-435
PC-3 prostate = tested on: PC-3 prostate
HOP-18 NSCLC = tested on: HOP-18 NSCLC
RXF-631 renal = tested on: RXF-631 renal

SMILES: COC(=O)[C@H](C)[C@H]1CC[C@@](C)([C@H]2CC3C(C)(C)[C@H]4CCC(C)=C[C@H]4C[C@@]3(C)O2)OO1 (stereo partly specified)
- TGI (LOX IMVI melanoma): 3.5 µM
- TGI (UACC-62 melanoma): 35.6 µM
- TGI (KM20L2 colon): 27.5 µM
- TGI (SK-MEL-28 melanoma): 31 µM
- TGI (NCI-H522 lung): 3.32 µM
- TGI (DMS 114 small cell lung): 14.2 µM
- TGI (EKVX NSCLC): 27.6 µM
- TGI (NCI-H226 lung): 28.9 µM
- TGI (LXFL 529 NSCLC): 7.79 µM
- TGI (MALME-3M melanoma): 28.3 µM
- TGI (COLO 205 colon): 23.8 µM
- TGI (HL-60(TB) leukemia): 5.57 µM
- TGI (SNB-78 CNS): 28.9 µM
- TGI (A549 NSCLC): 23.2 µM
- TGI (OVCAR-8 ovarian): 26.2 µM
- TGI (SF-539 CNS): 28.4 µM
- TGI (SW-620 colon): 27 µM
- TGI (TK-10 renal): 28.9 µM
- TGI (M14 melanoma): 25.8 µM
- TGI (IGROV1 ovarian): 11.1 µM
- TGI (CCRF-CEM leukemia): 16.3 µM
- TGI (HT29 colon): 27.2 µM
- TGI (SNB-75 CNS): 18.1 µM
- TGI (UACC-257 melanoma): 27.5 µM
- TGI (OVCAR-5 ovarian): 26.2 µM
- TGI (HCC-2998 colon): 18.7 µM
- TGI (CAKI-1 renal): 18.2 µM
- TGI (NCI-H23 lung): 23.6 µM
- TGI (ACHN renal): 23.4 µM
- TGI (K-562 leukemia): 24.2 µM
- TGI (SN12C renal): 24 µM
- TGI (OVCAR-3 ovarian): 27.7 µM
- TGI (M19-MEL melanoma): 28.8 µM
- TGI (SF-295 CNS): 28.4 µM
- TGI (SK-MEL-2 melanoma): 31.4 µM
- TGI (U251 CNS): 26.1 µM
- TGI (MOLT-4 leukemia): 25.3 µM
- TGI (RPMI-8226 leukemia): 18.4 µM
- TGI (HCT-116 colon): 22.3 µM
- TGI (KM12 colon): 25.7 µM
- TGI (OVCAR-4 ovarian): 30.1 µM
- TGI (HOP-92 NSCLC): 12.4 µM
- TGI (786-0 renal): 20.2 µM
- TGI (SF-268 CNS): 25.9 µM
- TGI (SR leukemia): 30.5 µM
- TGI (SNB-19 CNS): 28.2 µM
- TGI (A498 renal): 24.1 µM
- TGI (NCI-H460 lung): 4.62 µM
- TGI (SK-MEL-5 melanoma): 17.8 µM
- TGI (HCT-15 colon): 24.2 µM
- TGI (UO-31 renal): 19.2 µM
- TGI (SK-OV-3 ovarian): 56.6 µM
- TGI (DLD-1 colon): 25.9 µM
- TGI (HOP-62 NSCLC): 37.1 µM
- TGI (DMS 273 small cell lung): 26.1 µM
- TGI (XF 498 CNS): 21.8 µM

SMILES: Cc1cccc2c1CC(C1OC(=O)c3c(C)cccc31)C2=O (stereo unspecified)
- TGI (HS 578T breast): > 100 µM
- TGI (LOX IMVI melanoma): > 100 µM
- TGI (MCF7 breast): > 100 µM
- TGI (UACC-62 melanoma): > 100 µM
- TGI (SK-MEL-28 melanoma): > 100 µM
- TGI (NCI-H522 lung): > 100 µM
- TGI (EKVX NSCLC): > 100 µM
- TGI (NCI-H226 lung): > 100 µM
- TGI (MALME-3M melanoma): > 100 µM
- TGI (COLO 205 colon): > 100 µM
- TGI (DU-145 prostate): > 100 µM
- TGI (RXF 393 renal): > 100 µM
- TGI (HL-60(TB) leukemia): > 100 µM
- TGI (MDA-MB-231 breast): > 100 µM
- TGI (A549 NSCLC): > 100 µM
- TGI (OVCAR-8 ovarian): > 100 µM
- TGI (SF-539 CNS): > 100 µM
- TGI (SW-620 colon): > 100 µM
- TGI (TK-10 renal): > 100 µM
- TGI (M14 melanoma): > 100 µM
- TGI (IGROV1 ovarian): > 100 µM
- TGI (CCRF-CEM leukemia): > 100 µM
- TGI (HT29 colon): > 100 µM
- TGI (SNB-75 CNS): > 100 µM
- TGI (MDA-N): > 100 µM
- TGI (T-47D breast): > 100 µM
- TGI (UACC-257 melanoma): > 100 µM
- TGI (OVCAR-5 ovarian): > 100 µM
- TGI (HCC-2998 colon): > 100 µM
- TGI (CAKI-1 renal): > 100 µM
- TGI (NCI-H23 lung): > 100 µM
- TGI (ACHN renal): > 100 µM
- TGI (K-562 leukemia): > 100 µM
- TGI (SN12C renal): > 100 µM
- TGI (OVCAR-3 ovarian): > 100 µM
- TGI (NCI/ADR-RES ovarian): > 100 µM
- TGI (SF-295 CNS): > 100 µM
- TGI (SK-MEL-2 melanoma): > 100 µM
- TGI (BT-549 breast): > 100 µM
- TGI (MDA-MB-435): > 100 µM
- TGI (U251 CNS): > 100 µM
- TGI (MOLT-4 leukemia): > 100 µM
- TGI (RPMI-8226 leukemia): > 100 µM
- TGI (HCT-116 colon): > 100 µM
- TGI (KM12 colon): > 100 µM
- TGI (OVCAR-4 ovarian): > 100 µM
- TGI (HOP-92 NSCLC): > 100 µM
- TGI (786-0 renal): > 100 µM
- TGI (SF-268 CNS): > 100 µM
- TGI (SR leukemia): > 100 µM
- TGI (SNB-19 CNS): > 100 µM
- TGI (A498 renal): > 100 µM
- TGI (NCI-H460 lung): > 100 µM
- TGI (SK-MEL-5 melanoma): > 100 µM
- TGI (HCT-15 colon): > 100 µM
- TGI (UO-31 renal): > 100 µM
- TGI (SK-OV-3 ovarian): > 100 µM
- TGI (HOP-62 NSCLC): > 100 µM
- TGI (PC-3 prostate): > 100 µM

SMILES: CC1=CCP(C(F)(F)F)P(C(F)(F)F)C1 (stereo unspecified)
- TGI (LOX IMVI melanoma): > 100 µM
- TGI (UACC-62 melanoma): > 100 µM
- TGI (KM20L2 colon): > 100 µM
- TGI (SK-MEL-28 melanoma): > 100 µM
- TGI (NCI-H522 lung): > 100 µM
- TGI (DMS 114 small cell lung): > 100 µM
- TGI (EKVX NSCLC): > 100 µM
- TGI (NCI-H226 lung): > 100 µM
- TGI (LXFL 529 NSCLC): > 100 µM
- TGI (MALME-3M melanoma): > 100 µM
- TGI (COLO 205 colon): > 100 µM
- TGI (RXF 393 renal): 58.3 µM
- TGI (HL-60(TB) leukemia): > 100 µM
- TGI (HOP-18 NSCLC): > 100 µM
- TGI (SNB-78 CNS): > 100 µM
- TGI (A549 NSCLC): > 100 µM
- TGI (OVCAR-8 ovarian): > 100 µM
- TGI (SF-539 CNS): > 100 µM
- TGI (SW-620 colon): > 100 µM
- TGI (TK-10 renal): > 100 µM
- TGI (M14 melanoma): > 100 µM
- TGI (IGROV1 ovarian): > 100 µM
- TGI (CCRF-CEM leukemia): > 100 µM
- TGI (HT29 colon): > 100 µM
- TGI (SNB-75 CNS): > 100 µM
- TGI (UACC-257 melanoma): > 100 µM
- TGI (OVCAR-5 ovarian): > 100 µM
- TGI (HCC-2998 colon): > 100 µM
- TGI (CAKI-1 renal): > 100 µM
- TGI (NCI-H23 lung): > 100 µM
- TGI (ACHN renal): > 100 µM
- TGI (K-562 leukemia): > 100 µM
- TGI (SN12C renal): > 100 µM
- TGI (OVCAR-3 ovarian): > 100 µM
- TGI (M19-MEL melanoma): > 100 µM
- TGI (SF-295 CNS): > 100 µM
- TGI (U251 CNS): > 100 µM
- TGI (MOLT-4 leukemia): > 100 µM
- TGI (RXF-631 renal): > 100 µM
- TGI (RPMI-8226 leukemia): > 100 µM
- TGI (HCT-116 colon): > 100 µM
- TGI (KM12 colon): > 100 µM
- TGI (OVCAR-4 ovarian): > 100 µM
- TGI (HOP-92 NSCLC): > 100 µM
- TGI (786-0 renal): > 100 µM
- TGI (SF-268 CNS): > 100 µM
- TGI (SR leukemia): > 100 µM
- TGI (SNB-19 CNS): > 100 µM
- TGI (A498 renal): > 100 µM
- TGI (NCI-H460 lung): > 100 µM
- TGI (SK-MEL-5 melanoma): > 100 µM
- TGI (HCT-15 colon): > 100 µM
- TGI (UO-31 renal): > 100 µM
- TGI (SK-OV-3 ovarian): > 100 µM
- TGI (DLD-1 colon): > 100 µM
- TGI (HOP-62 NSCLC): > 100 µM
